Data set [1] relates to Lactobacillaceae (Lactobacillus reuteri). The experiment in a line: In vitro colonic fermentation, 16S rRNA bacterial population analysis. It counts as cell-based. The settings on record: 24 h fermented samples versus Time 0 samples.
The subject of data set [2] is faecal slurries (gut microbiota). The experiment in a line: In vitro colonic batch fermentation, pH value. As to conditions: batch fermentation with faecal slurry, 37° C., starting pH adjusted.
For data set [3], the system named is Veillonellaceae (Dialister). The experiment in a line: In vitro colonic fermentation, 16S rRNA bacterial population analysis. Format: cell-based. As to conditions: 24 h fermented samples versus Time 0 samples.
Data set [4] relates to Veillonellaceae (Veillonella dispar). The data set is described as above. Format: cell-based. As to conditions: 24 h fermented samples versus Time 0 samples.
Data set [5] deals with Porphyromonadaceae (Parabacteroides distasonis). Described as above. Format: cell-based. As to conditions: 24 h fermented samples versus Time 0 samples.
Data set [6] has as its system Lachnospiraceae (Coprococcus). The description is as above. Format: cell-based. The settings on record: 24 h fermented samples versus Time 0 samples.
Data set [7] relates to faecal slurries (gut microbiota). The experiment in a line: In vitro colonic fermentation, SCFA analysis by gas chromatography. The settings on record: 24 hrs fermentation, result in words (FIG. 2, FIG. 3).
A short description of data set [8]: pH of formulations in fermentation media before pH adjustment. It counts as physicochemical. The settings on record: 150 mg dried formulation in 10 mL fermentation media, before standardizing the starting pH at 6.8.
In data set [9] the test system is Ruminococcaceae (Oscillospira). The experiment in a line: In vitro colonic fermentation, 16S rRNA bacterial population analysis. It counts as cell-based. The settings on record: 24 h fermented samples versus Time 0 samples.
Data set [10] deals with Paraprevotellaceae (Paraprevotella). The data set is described as above. It counts as cell-based. The settings on record: 24 h fermented samples versus Time 0 samples.
The subject of data set [11] is Ruminococcaceae (Faecalibacterium prausnitzii). Described as above. Format: cell-based. The settings on record: 24 h fermented samples versus Time 0 samples.
Data set [12] deals with Lachnospiraceae (Dorea formicigenerans). Described as above. As to conditions: 24 h fermented samples versus Time 0 samples. It counts as cell-based.
Data set [13] concerns Lachnospiraceae (Blautia). The description is as above. It counts as cell-based. As to conditions: 24 h fermented samples versus Time 0 samples.
The next data set has as its system Erysipelotrichaceae. The description is as above. It counts as cell-based. As to conditions: 24 h fermented samples versus Time 0 samples.
In data set [14] the test system is Lachnospiraceae (Lachnospira). The description is as above. As to conditions: 24 h fermented samples versus Time 0 samples. It counts as cell-based.
Another data set relates to Ruminococcaceae. The description is as above. Format: cell-based. The settings on record: 24 h fermented samples versus Time 0 samples.
Data set [15] has as its system Coriobacteriaceae (Collinsella aerofaciens). The data set is described as above. As to conditions: 24 h fermented samples versus Time 0 samples. Format: cell-based.
In data set [16] the test system is Bacteroidaceae (Bacteroides). The data set is described as above. Format: cell-based. The settings on record: 24 h fermented samples versus Time 0 samples.
Data set [17] concerns Ruminococcaceae (Ruminococcus). Described as above. It counts as cell-based. As to conditions: 24 h fermented samples versus Time 0 samples.
Data set [18] deals with Bacillaceae (Bacillus coagulans). The data set is described as above. Format: cell-based. As to conditions: 24 h fermented samples versus Time 0 samples.
The subject of data set [19] is Enterobacteriaceae (Trabulsiella). The data set is described as above. It counts as cell-based. As to conditions: 24 h fermented samples versus Time 0 samples.
For data set [20], the system named is Clostridiaceae (Clostridium perfringens). Format: cell-based. As to conditions: 24 h fermented samples versus Time 0 samples.
Data set [21] has as its system Lachnospiraceae (Roseburia faecis). The experiment in a line: In vitro colonic fermentation, 16S rRNA bacterial population analysis. Format: cell-based. The settings on record: 24 h fermented samples versus Time 0 samples.

The text below walks through data of US20220273571A1, “COMPOSITIONS OF PROBIOTICS AND BIOMASS AND METHODS FOR PROMOTING HEALTH IN A SUBJECT” (Commonwealth Scientific and Industrial Research Organisation, priority 2019, published 2022).

Turning to `O=C(O[C@@H]1Cc2c(O)cc(O)cc2O[C@@H]1c1cc(O)c(O)c(O)c1)c1cc(O)c(O)c(O)c1` [EGCG, Epigallocatechin gallate], in [1], the “Log2 fold change of percentage abundance, Lactobacillaceae (Lactobacillus reuteri)” value is recorded as −0.37 Log2 fold change. Further, the “pH at 24 hrs” value in data set [2] is given as 6.46 ± 0.05. For the same molecule, the “Log2 fold change of percentage abundance, Veillonellaceae (Dialister)” value in data set [3] is −0.32 Log2 fold change. The “Log2 fold change of percentage abundance, Veillonellaceae (Veillonella dispar)” value in data set [4] was −0.58 Log2 fold change. Also, in data set [5], the “Log2 fold change of percentage abundance, Porphyromonadaceae (Parabacteroides distasonis)” value amounted to 0.27 Log2 fold change. Also, in data set [6], the “Log2 fold change of percentage abundance, Lachnospiraceae (Coprococcus)” value is recorded as −0.22 Log2 fold change. In addition, the “total and individual SCFA production during fermentation” value in data set [7] is recorded as “significantly inhibited”. The pH in data set [8] came out at 7.16. Besides, the “Log2 fold change of percentage abundance, Ruminococcaceae (Oscillospira)” value in data set [9] is reported as −0.31 Log2 fold change. The “Log2 fold change of percentage abundance, Paraprevotellaceae (Paraprevotella)” value in data set [10] came out at 0.46 Log2 fold change. The “Log2 fold change of percentage abundance, Ruminococcaceae (Faecalibacterium prausnitzii)” value in [11] is −0.81 Log2 fold change. In addition, the “Log2 fold change of percentage abundance, Lachnospiraceae (Dorea formicigenerans)” value in data set [12] is recorded as −1.47 Log2 fold change. In addition, the “Log2 fold change of percentage abundance, Lachnospiraceae (Blautia)” value in data set [13] is given as −1.39 Log2 fold change. The “Log2 fold change of percentage abundance, Erysipelotrichaceae” value in the data set with Erysipelotrichaceae is listed as −1.30 Log2 fold change. Besides, the “Log2 fold change of percentage abundance, Lachnospiraceae (Lachnospira)” value in [14] is −0.28 Log2 fold change. In addition, in the data set with Ruminococcaceae, the “Log2 fold change of percentage abundance, Ruminococcaceae” value was −0.57 Log2 fold change. The “Log2 fold change of percentage abundance, Coriobacteriaceae (Collinsella aerofaciens)” value in data set [15] is on record as −0.81 Log2 fold change. For the same molecule, in data set [16], the “Log2 fold change of percentage abundance, Bacteroidaceae (Bacteroides)” value is −0.13 Log2 fold change. Moreover, in data set [17], the “Log2 fold change of percentage abundance, Ruminococcaceae (Ruminococcus)” value is reported as −1.35 Log2 fold change. For the same molecule, the “Log2 fold change of percentage abundance, Bacillaceae (Bacillus coagulans)” value in data set [18] is listed as −1.94 Log2 fold change. Further, the “Log2 fold change of percentage abundance, Enterobacteriaceae (Trabulsiella)” value in data set [19] turned out to be 0.58 Log2 fold change. Further, the “Log2 fold change of percentage abundance, Clostridiaceae (Clostridium perfringens)” value in data set [20] is −0.79 Log2 fold change. The “Log2 fold change of percentage abundance, Lachnospiraceae (Roseburia faecis)” value in data set [21] is on record as −0.11 Log2 fold change.
